Values joined by “and” are separate entries in the source; they are usually repeats but may differ in a detail not shown here. Equal entries are not always repeated. Inconclusive results and toxic doses are left out.
Test system: P388 leukemia ip, CD2F1 mice, survival T/C
Test: NCI In Vivo Anticancer Drug Screen. Data for tumor model P388 Leukemia (intraperitoneal) in CD2F1 (CDF1) mice
Conditions: endpoint: median survival time, higher = longer survival
Procedure, shortened: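 Mice carrying the transplanted tumor received test compound or vehicle. Survival was recorded in each group, and the value is the treated-group measurement divided by that of the vehicle-treated control group.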

[1] = dose: 50.0 mg/kg/injection, schedule: Q01DX009 (ip), vehicle: saline
[2] = dose: 100.0 mg/kg/injection, schedule: Q01DX009 (ip), vehicle: saline
[3] = dose: 200.0 mg/kg/injection, schedule: Q01DX009 (ip), vehicle: saline
[4] = dose: 50.0 mg/kg/injection, schedule: Q01DX009 (ip), vehicle: saline with Tween-80
[5] = dose: 100.0 mg/kg/injection, schedule: Q01DX009 (ip), vehicle: saline with Tween-80
[6] = dose: 200.0 mg/kg/injection, schedule: Q01DX009 (ip), vehicle: saline with Tween-80
[7] = dose: 60.0 mg/kg/injection, schedule: Q01DX005 (ip), vehicle: saline with Tween-80
[8] = dose: 120.0 mg/kg/injection, schedule: Q01DX005 (ip), vehicle: saline with Tween-80
[9] = dose: 240.0 mg/kg/injection, schedule: Q01DX005 (ip), vehicle: saline with Tween-80
[10] = dose: 7.5 mg/kg/injection, schedule: Q01DX005 (ip), vehicle: saline with Tween-80
[11] = dose: 15.0 mg/kg/injection, schedule: Q01DX005 (ip), vehicle: saline with Tween-80
[12] = dose: 50.0 mg/kg/injection, schedule: Q01DX009 (ip), vehicle: Klucel (hydroxypropylcellulose) (HPC)
[13] = dose: 100.0 mg/kg/injection, schedule: Q01DX009 (ip), vehicle: Klucel (hydroxypropylcellulose) (HPC)
[14] = dose: 200.0 mg/kg/injection, schedule: Q01DX009 (ip), vehicle: Klucel (hydroxypropylcellulose) (HPC)
[15] = dose: 50.0 mg/kg/injection, schedule: Q01DX001 (ip), vehicle: Klucel (hydroxypropylcellulose) (HPC)
[16] = dose: 100.0 mg/kg/injection, schedule: Q01DX001 (ip), vehicle: Klucel (hydroxypropylcellulose) (HPC)
[17] = dose: 100.0 mg/kg/injection, schedule: Q04DX003 (ip), vehicle: saline with Tween-80
[18] = dose: 200.0 mg/kg/injection, schedule: Q04DX003 (ip), vehicle: saline with Tween-80
[19] = dose: 25.0 mg/kg/injection, schedule: Q01DX009 (ip), vehicle: saline with Tween-80
[20] = dose: 25.0 mg/kg/injection, schedule: Q01DX009 (ip), vehicle: other
[21] = dose: 50.0 mg/kg/injection, schedule: Q01DX009 (ip), vehicle: other
[22] = dose: 100.0 mg/kg/injection, schedule: Q01DX009 (ip), vehicle: other
[23] = dose: 200.0 mg/kg/injection, schedule: Q01DX009 (ip), vehicle: other

With `c1ccc(CN2CCOC2)cc1` the T/C (dose: 12.5 mg/kg/injection, schedule: Q01DX009 (ip), vehicle: saline) was 108 % of control, the T/C (dose: 25.0 mg/kg/injection, schedule: Q01DX009 (ip), vehicle: saline) was 108 % of control and the T/C [1] was 118 % of control and 124 % of control. For the same compound, the T/C [2] was 123 % of control and the T/C [3] was 116 % of control.

`N#CC1OC1c1ccccn1` (centres undefined) was tested, and the T/C (dose: 6.25 mg/kg/injection, schedule: Q01DX005 (ip), vehicle: saline + Tween-80 + alcohol) was 98 % of control and the T/C (dose: 12.5 mg/kg/injection, schedule: Q01DX005 (ip), vehicle: saline + Tween-80 + alcohol) was 98 % of control.

With `Brc1ccc(N=C=C(c2ccccc2)c2ccccc2)cc1` the T/C [4] was 95 % of control, the T/C [5] was 100 % of control and the T/C [6] was 104 % of control.

With `CC(C)(C)c1cc(C[N+](C)(C)C)c(O)c(C(C)(C)C)c1` the T/C (dose: 12.5 mg/kg/injection, schedule: Q01DX005 (ip), vehicle: distilled water + alcohol) was 95 % of control, the T/C (dose: 25.0 mg/kg/injection, schedule: Q01DX005 (ip), vehicle: distilled water + alcohol) was 96 % of control and the T/C (dose: 50.0 mg/kg/injection, schedule: Q01DX005 (ip), vehicle: distilled water + alcohol) was 101 % of control and 104 % of control.

For `CCOC(=O)C1=C(Nc2ccc(F)cc2)C(=O)N(CC)C1`, the T/C [7] was 100 % of control, the T/C [8] was 102 % of control and the T/C [9] was 93 % of control.

With `Cc1cc2c(cc1C)n1c(=O)n(C)c(=O)c(C#N)c1n2C` the T/C [10] was 100 % of control and the T/C [11] was 101 % of control.

With `CCn1c(=O)c2[nH]c(=S)[nH]c2n(C2CC2)c1=O` the T/C [12] was 97 % of control, the T/C [13] was 101 % of control and the T/C [14] was 113 % of control.

With `COCCCNC1=C(C#N)C(=O)NC(c2cccs2)S1` (centres undefined) the T/C [4] was 117 % of control and the T/C [5] was 119 % of control.

For `C/C=C/C1OC(O)(C(C)C(O)C(C)C2OC(=O)/C(OC)=C/C(C)=C/C(C)C(O)C(CC)C(O)C(C)C/C(C)=C/C=C/C2OC)CC(OC(=O)/C=C/C(=O)NC2=C(O)CCC2=O)C1C` (centres undefined), the T/C (dose: 0.75 mg/kg/injection, schedule: Q01DX005 (ip), vehicle: Klucel (hydroxypropylcellulose) (HPC)) was 118 % of control, the T/C (dose: 1.5 mg/kg/injection, schedule: Q01DX005 (ip), vehicle: Klucel (hydroxypropylcellulose) (HPC)) was 110 % of control and the T/C (dose: 3.0 mg/kg/injection, schedule: Q01DX005 (ip), vehicle: Klucel (hydroxypropylcellulose) (HPC)) was 108 % of control. The T/C (dose: 6.0 mg/kg/injection, schedule: Q01DX005 (ip), vehicle: Klucel (hydroxypropylcellulose) (HPC)) was 110 % of control.

With `COC(=O)NC1C(=O)CCC(=O)C1C(N)=O` (centres undefined) the T/C [10] was 86 % of control and the T/C [11] was 98 % of control.

With `C=C(CC(O)c1ccccc1)C(=O)Nc1ccccc1OC` (centres undefined) the T/C (dose: 50.0 mg/kg/injection, schedule: Q01DX005 (ip), vehicle: saline) was 98 % of control, the T/C (dose: 100.0 mg/kg/injection, schedule: Q01DX005 (ip), vehicle: saline) was 103 % of control and the T/C (dose: 200.0 mg/kg/injection, schedule: Q01DX005 (ip), vehicle: saline) was 100 % of control.

For `O=C1c2ccccc2C(=O)N1CCn1[nH]c(=O)c2ccccc2c1=O`, the T/C [7] was 99 % of control, the T/C [8] was 90 % of control and the T/C [9] was 96 % of control.

For `COC(=O)c1ccnc2nc[nH]c12`, the T/C (dose: 100.0 mg/kg/injection, schedule: Q01DX001 (ip), vehicle: water) was 103 % of control, the T/C (dose: 200.0 mg/kg/injection, schedule: Q01DX001 (ip), vehicle: water) was 104 % of control and the T/C (dose: 400.0 mg/kg/injection, schedule: Q01DX001 (ip), vehicle: water) was 104 % of control.

`BrCC1(CBr)COC1` was tested, and the T/C [15] was 95 % of control, the T/C [16] was 107 % of control and the T/C (dose: 200.0 mg/kg/injection, schedule: Q01DX001 (ip), vehicle: Klucel (hydroxypropylcellulose) (HPC)) was 100 % of control.

For `O=C1c2c(O)cccc2-c2nn(CCNCCO)c3ccc(NCCNCCO)c1c23`, the T/C (dose: 3.12 mg/kg/injection, schedule: Q04DX002 (ip), vehicle: water) was 171 % of control, the T/C (dose: 6.25 mg/kg/injection, schedule: Q04DX002 (ip), vehicle: water) was 183 % of control and the T/C (dose: 12.5 mg/kg/injection, schedule: Q04DX002 (ip), vehicle: water) was 228 % of control and 235 % of control. The T/C (dose: 25.0 mg/kg/injection, schedule: Q04DX002 (ip), vehicle: water) was 184 % of control and 285 % of control and 588 % of control, the T/C (dose: 50.0 mg/kg/injection, schedule: Q04DX002 (ip), vehicle: water) was 88 % of control and the T/C (dose: 100.0 mg/kg/injection, schedule: Q04DX002 (ip), vehicle: water) was 190 % of control.

`CC(C)Sc1ncnc2nc[nH]c12` was tested, and the T/C [4] was 100 % of control, the T/C [5] was 104 % of control and the T/C [17] was 95 % of control. The T/C [6] was 118 % of control and the T/C [18] was 86 % of control.

`CCOC(=O)CNCc1cccnc1` was tested, and the T/C (dose: 12.5 mg/kg/injection, schedule: Q04DX003 (ip), vehicle: saline) was 103 % of control, the T/C (dose: 25.0 mg/kg/injection, schedule: Q04DX003 (ip), vehicle: saline) was 106 % of control and 94 % of control and the T/C (dose: 50.0 mg/kg/injection, schedule: Q04DX003 (ip), vehicle: saline) was 100 % of control and 103 % of control. For the same compound, the T/C (dose: 100.0 mg/kg/injection, schedule: Q04DX003 (ip), vehicle: saline) was 104 % of control and 94 % of control and the T/C (dose: 200.0 mg/kg/injection, schedule: Q04DX003 (ip), vehicle: saline) was 97 % of control.

For `c1ccc(N=NC2=NN(c3ccccc3)CS2)cc1`, the T/C [19] was 105 % of control and 106 % of control, the T/C [4] was 101 % of control and 102 % of control and the T/C [5] was 101 % of control and 102 % of control. The T/C [6] was 101 % of control and 106 % of control.

`CC(C)(C)C(=O)Oc1cc2c(cc1OC(=O)C(C)(C)C)C(c1ccccc1)CNCC2` (centres undefined) was tested, and the T/C [19] was 96 % of control and the T/C [4] was 98 % of control.

With `Cc1ccc(S(=O)(=O)NC(CC(N)=O)C(=O)O)cc1` (centres undefined) the T/C [20] was 101 % of control, the T/C [21] was 100 % of control and the T/C [22] was 101 % of control. The T/C [23] was 100 % of control and the T/C (dose: 400.0 mg/kg/injection, schedule: Q01DX009 (ip), vehicle: other) was 98 % of control.

`CNC(C)C(O)c1ccc(O)cc1` (centres undefined) was tested, and the T/C [1] was 102 % of control and 92 % of control, the T/C [2] was 102 % of control and 105 % of control and the T/C [3] was 102 % of control and 108 % of control. The T/C (dose: 400.0 mg/kg/injection, schedule: Q01DX009 (ip), vehicle: saline) was 102 % of control and 98 % of control.

In the case of `O=S1(=O)CC2(N3CCOCC3)C3CCC(C3)C21` (centres undefined), the T/C (dose: 50.0 mg/kg/injection, schedule: Q04DX003 (ip), vehicle: saline with Tween-80) is reported as 99 % of control and 101 % of control, the T/C [17] is reported as 100 % of control and 104 % of control and the T/C [18] is reported as 101 % of control and 104 % of control.

In the case of `CCOC(=O)Nc1cc(NC/C(=N/O)c2ccc(Cl)cc2)c([N+](=O)[O-])c(N)n1`, the T/C [15] is reported as 90 % of control and the T/C [16] is reported as 87 % of control.

`C/C=C1/CN2CC[C@@]34c5cc([C@]67C8CCN9C/C(=C/C)[C@H](CC96)C(C(=O)OC)N7c6ccccc68)c(OC)cc5N(C)[C@H]3C2CC1C4C(=O)OC` (some centres undefined) was tested, and the T/C (dose: 5.25 mg/kg/injection, schedule: Q01DX005 (ip), vehicle: Klucel (hydroxypropylcellulose) (HPC)) was 104 % of control, the T/C (dose: 10.5 mg/kg/injection, schedule: Q01DX005 (ip), vehicle: Klucel (hydroxypropylcellulose) (HPC)) was 98 % of control and the T/C (dose: 21.0 mg/kg/injection, schedule: Q01DX005 (ip), vehicle: Klucel (hydroxypropylcellulose) (HPC)) was 90 % of control. For the same compound, the T/C (dose: 42.0 mg/kg/injection, schedule: Q01DX005 (ip), vehicle: Klucel (hydroxypropylcellulose) (HPC)) was 96 % of control.

For `O=C(O)c1ccc(C(=O)N(CCP(c2ccccc2)c2ccccc2)CCP(c2ccccc2)c2ccccc2)cc1C(=O)O`, the T/C [12] was 110 % of control, the T/C [13] was 90 % of control and the T/C [14] was 94 % of control.

`CCOC(=O)c1csc(CCNC(=O)c2ccccc2)n1` was tested, and the T/C (dose: 12.5 mg/kg/injection, schedule: Q01DX009 (ip), vehicle: other) was 103 % of control, the T/C [20] was 102 % of control and the T/C [21] was 94 % of control. The T/C [22] was 94 % of control and the T/C [23] was 89 % of control.

Source: PubChem BioAssay AID330 (DTP/NCI, 2004)
